Literature values in patent US20050042240A1, “High viscosity antibacterials” (priority 2002, published 2005).

Conditions: chronic catheter lock context

CC(C)O [isopropyl alcohol]
daily dose above which toxic symptoms can arise: > 500 mg
